# Test results as given in patent US6472166B1, “Method for determining the effects of a growth-altering agent on a microbial colony” (Wardlaw Partners LP, priority 2000, dated 2002).
# Tests used:
# Assay type in all cases: cell-based
# [1] = test system: E. coli; test: Microcolony growth imaging of E. coli on Kirby-Bauer type growth medium; conditions: 2 μg/ml, two-hour incubation, E. coli microcolonies, FIG. 2D
# Procedure: (§1) FIGS. 2A-2D, 3A-3D, and 4A-4D show digital images of various microorganisms exposed to different growth-altering agents. Here again, the images contained in panels “A” and “B” of each FIGURE were taken immediately after inoculation, and the images contained in panels “C” and “D” of each FIGURE were taken after about two hours of incubation. None of the images in FIGS. 2A-2D, 3A-3D, and 4A-4D are enhanced by digital processing. The images contained in panels “B” and “D” of each FIGURES show regions of the growth medium that have been exposed to a growth-altering agent. The images contained in panels “A” and “C” of each FIGURE have not been exposed to a growth-altering agent and can be used as control reference areas.
# The images contained in FIGS. 2A and 2B show regions of a Kirby-Bauer type growth medium immediately after inoculation with E. coli. The images contained in FIGS. 2C and 2D show the same regions after a two-hour incubation period. […] If it is desired to find the threshold of microbial sensitivity, such as is done to determine the minimum inhibitory concentration (MIC), then a series of separate regions each containing a certain concentration of the growth-altering agent may be used and the relative growth in each separate region evaluated. […]
# [2] = test system: E. faecium; test: Microcolony growth imaging of E. faecium on Kirby-Bauer type growth medium; conditions: 2 μg/ml, two-hour incubation, E. faecium microcolonies, FIG. 4D
# Procedure: as §1
# The images contained in FIGS. 4A and 4B show regions of a Kirby-Bauer type growth medium immediately after inoculation with E. faecium. The images contained in FIGS. 4C and 4D show the same regions after a two-hour incubation period.
# [3] = test system: E. faecalis; test: Microcolony growth imaging of E. faecalis on Kirby-Bauer type growth medium; conditions: 2 μg/ml, two-hour incubation, E. faecalis microcolonies, FIG. 3D
# Procedure: as §1
# The images contained in FIGS. 3A and 3B show regions of a Kirby-Bauer type growth medium immediately after inoculation with E. faecalis. The images contained in FIGS. 3C and 3D show the same regions after a two-hour incubation period.
Compound,microcolony perimeter/area ratio characteristic [1],microcolony growth [2],microcolony growth [3]
CO/N=C(\C(=O)N[C@@H]1C(=O)N2C(C(=O)O)=C(COC(C)=O)CS[C@H]12)c1csc(N)n1 [cefotaxime],increased perimeter/area ratio characteristic,,
CN[C@H](CC(C)C)C(=O)N[C@H]1C(=O)N[C@@H](CC(N)=O)C(=O)N[C@H]2C(=O)N[C@H]3C(=O)N[C@H](C(=O)N[C@H](C(=O)O)c4cc(O)cc(O)c4-c4cc3ccc4O)[C@H](O)c3ccc(c(Cl)c3)Oc3cc2cc(c3O[C@@H]2O[C@H](CO)[C@@H](O)[C@H](O)[C@H]2O[C@H]2C[C@](C)(N)[C@H](O)[C@H](C)O2)Oc2ccc(cc2Cl)[C@H]1O [vancomycin],,show detectable growth,do not appear to exhibit any growth
